According to patent US6194176A, “Recombinant expression of proteins from secretory cell lines” (priority 1997, dated 2001):
Read-outs that look alike come from different tables or passages of the source.

Columns and labels:
RIN 1046-38 cells = assay: Insulin secretion in static incubation, glucose dose response with or without 5-thioglucose; format: cell-based; details: Rattus norvegicus; 2 mM 5-thioglucose, 0.25 mM glucose + 100 μM IBMX, 2 h; read-out: reduction in insulin secretion
Description: (§1) Cells were plated in 12-well dishes (Corning Glass Works, Corning, N.Y.) at a density of approximately 250,000 cells per well and allowed to grow for 48 hours. Cells were washed twice for 20 minutes each in HEPES/bicarbonate buffered salt solution (HBBSS; 114 mM NaCl, 4.7 mM KCl, 1.21 mM KH2 PO4, 1.16 mM MgSO4, 25.5 mM NaHCO3, 2.5 mM CaCl2, 10 mM Hepes) with 0.1% bovine serum albumin but without glucose. Secretion studies were then conducted by incubating cells in HBBSS containing 0.5% BSA and with glucose in a range of concentrations from 0 to 20 mM for two hours. These experiments were conducted in the presence and absence of 2 mM 5-thioglucose (Sigma, St. Louis, Mo.) and in the presence or absence of 100 μM isobutylmethylxanthine (IBMX). Following incubation, media was collected and assayed for insulin by radioimmunoassay with the DPC method, as described above. Secretion was normalized for cell number by measuring total protein in each well by the method of Bradford (1976), using the kit from Bio-Rad, Hercules, Calif.

EP 40/110 cells = assay: as above; format: cell-based, rat; details: 2 mM 5-thioglucose, + IBMX, 2 h
Description: as §1

EP 49/206 cells = assay: as above; format: cell-based, rat; details: 2 mM 5-thioglucose, + IBMX, 2 h
Description: as §1

R5C.I-17 cells = assay: as above; format: cell-based, rat
Description: as §1

Glucokinase (GK) = details: cited from earlier work
[1] = system: Hexokinases I-III (HK1-111), low Km hexokinases; details: HK1-111, Table 1, cited from earlier work

SMILES: O=C[C@H](O)[C@@H](O)[C@H](O)[C@H](S)CO [5-thioglucose]
- inhibition at 2000 µM (RIN 1046-38 cells): 50%
- effect on insulin secretion response to 0.25 mM glucose (EP 40/110 cells): completely eliminated
- inhibition at 2000 µM (EP 40/110 cells; Rattus norvegicus, read-out: reduction of insulin secretion response to 0.5 mM glucose): 70%
- effect on insulin secretion response to 0.05 and 0.25 mM glucose (EP 49/206 cells): completely eliminated
- maximal fold-response of insulin secretion (R5C.I-17 cells; 2 mM 5-thioglucose present, seen at 1 mM glucose + IBMX (5.7-fold without 5-thioglucose)): 3.9 fold
- inhibition at 2000 µM (R5C.I-17 cells; Rattus norvegicus, 2 mM 5-thioglucose, no secretagogues or IBMX alone, 2 h, read-out: suppression of basal insulin secretion): ~50%

SMILES: OC[C@H]1OC(O)[C@H](O)[C@@H](O)[C@@H]1O (some centres unmarked) [glucose]
- Km (Glucokinase (GK); GK of Table 1, read-out: Km glucose): 5000 to 12000 µM
- Km (Glucokinase (GK); approximate, read-out: Km for glucose): 6000 to 8000 µM
- Km ([1]; read-out: Km glucose): 20 to 130 µM

SMILES: Nc1ncnc2c1ncn2[C@@H]1O[C@H](COP(=O)(O)OP(=O)(O)OP(=O)(O)O)[C@@H](O)[C@H]1O [ATP]
- Km (Glucokinase (GK); GK of Table 1, read-out: Km ATP): 500 µM
- Km ([1]; read-out: Km ATP): 200 to 500 µM

SMILES: O=P(O)(O)OC[C@H]1OC(O)[C@H](O)[C@@H](O)[C@@H]1O (some centres unmarked) [G-6-P, glucose-6-phosphate]
- Ki (Glucokinase (GK); GK of Table 1, read-out: Ki G-6-P): 60 mM
- glucose-6-phosphate concentration required for appreciable inhibition (Glucokinase (GK)): > 10 mM
- Ki ([1]; read-out: Ki G-6-P): 0.2 to 0.9 mM
